Assay results published in ChEMBL document CHEMBL4406855, “Design, synthesis and biological evaluation of N-(3-(1H-tetrazol-1-yl)phenyl)isonicotinamide derivatives as novel xanthine oxidase inhibitors” (Eur J Med Chem, 2019).

Target: Xanthine dehydrogenase/oxidase (Bos taurus, UniProt P80457)
Assay: Inhibition of bovine xanthine oxidase assessed as reduction in uric acid formation using xanthine as substrate preincubated for 10 mins followed by substrate addition measured at first 2 mins by spectrophotometric analysis

Chain of Xanthine dehydrogenase/oxidase (P80457 whole entry): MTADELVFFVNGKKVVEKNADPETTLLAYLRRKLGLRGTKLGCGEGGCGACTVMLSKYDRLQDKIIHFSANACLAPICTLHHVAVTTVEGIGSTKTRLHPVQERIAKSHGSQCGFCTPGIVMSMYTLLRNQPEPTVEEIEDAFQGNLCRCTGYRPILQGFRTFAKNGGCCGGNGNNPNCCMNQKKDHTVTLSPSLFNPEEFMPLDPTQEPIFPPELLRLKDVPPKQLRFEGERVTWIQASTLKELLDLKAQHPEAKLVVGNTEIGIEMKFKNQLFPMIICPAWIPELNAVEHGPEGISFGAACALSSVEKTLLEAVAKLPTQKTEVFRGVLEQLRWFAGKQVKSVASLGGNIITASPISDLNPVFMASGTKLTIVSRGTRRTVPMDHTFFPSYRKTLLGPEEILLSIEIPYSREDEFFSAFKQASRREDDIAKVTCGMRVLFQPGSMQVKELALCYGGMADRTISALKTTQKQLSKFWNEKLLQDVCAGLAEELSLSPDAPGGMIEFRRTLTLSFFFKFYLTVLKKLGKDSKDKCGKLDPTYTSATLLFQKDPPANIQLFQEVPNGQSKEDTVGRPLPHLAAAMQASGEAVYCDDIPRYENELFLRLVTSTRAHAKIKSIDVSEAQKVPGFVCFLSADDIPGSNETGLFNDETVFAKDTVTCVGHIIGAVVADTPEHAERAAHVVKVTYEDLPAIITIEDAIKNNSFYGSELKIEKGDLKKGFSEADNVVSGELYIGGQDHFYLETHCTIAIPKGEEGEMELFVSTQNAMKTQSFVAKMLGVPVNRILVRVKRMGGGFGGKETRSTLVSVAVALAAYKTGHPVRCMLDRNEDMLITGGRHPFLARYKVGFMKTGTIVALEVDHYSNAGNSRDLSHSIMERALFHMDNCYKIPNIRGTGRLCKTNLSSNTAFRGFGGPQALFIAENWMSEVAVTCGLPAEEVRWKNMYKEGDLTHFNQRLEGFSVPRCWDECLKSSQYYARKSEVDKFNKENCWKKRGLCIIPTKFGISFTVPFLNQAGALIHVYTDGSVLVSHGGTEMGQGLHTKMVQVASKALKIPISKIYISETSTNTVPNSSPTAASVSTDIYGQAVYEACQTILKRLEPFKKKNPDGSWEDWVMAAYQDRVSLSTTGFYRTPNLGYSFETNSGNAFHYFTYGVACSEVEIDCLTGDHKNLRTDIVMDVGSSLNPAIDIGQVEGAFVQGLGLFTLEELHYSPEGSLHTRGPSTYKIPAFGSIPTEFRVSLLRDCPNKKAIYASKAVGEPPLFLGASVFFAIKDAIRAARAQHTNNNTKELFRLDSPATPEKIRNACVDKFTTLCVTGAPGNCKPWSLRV

| SMILES | IC50 [µM] |
| --- | --- |
| N#Cc1ccccc1COc1ccc(NC(=O)c2ccncc2)cc1C#N | 0.312 |
| N#Cc1cc(-c2n[nH]c(-c3ccncc3)n2)ccn1 [TOPIROXOSTAT] | 0.021 |
